Experiment [1] deals with Thoracic aorta. In words: Vasorelaxant activity in C57 mouse thoracic aortic rings containing endothelium assessed as reduction in phenylephrine-induced contractions at 3 to 300 uM measured for 16 mins by myograph assay. It counts as functional, tissue-based. The note with it: dose 3-300 µM.
Experiment [2] deals with Thoracic aorta. In words: Vasorelaxant activity in C57 mouse thoracic aortic rings containing endothelium assessed as reduction in phenylephrine-induced contractions at 3 to 300 uM pretreated with nitric oxide synthase inhibitor, L-NAME and measured for 16 mins by myograph method. The class given is functional, tissue-based. To be noted: dose 3-300 µM.
The subject of experiment [3] is Thoracic aorta. In words: Vasorelaxant activity in C57 mouse thoracic aortic rings assessed as reduction in phenylephrine-induced contractions at 3 to 300 uM measured for 16 mins in absence of endothelium by myograph method. The class given is functional, tissue-based. To be noted: dose 3-300 µM.
For experiment [4], the system named is Thoracic aorta. Nature of the experiment: Vasorelaxant activity in C57 mouse thoracic aortic rings containing endothelium assessed as reduction in phenylephrine-induced contractions at 300 uM after 40 mins by myograph method. The class given is functional.
The subject of experiment [5] is Thoracic aorta. In words: Vasorelaxant activity in C57 mouse thoracic aortic rings containing endothelium assessed as reduction in high extracellular K+-induced contractions measured for 16 mins by myograph assay. To be noted: dose 3-300 µM. It counts as functional, tissue-based.
Experiment [6] deals with Thoracic aorta. In words: Vasorelaxant activity in C57 mouse thoracic aortic rings assessed as reduction in high extracellular K+-induced contractions at 3 to 300 uM measured for 16 mins in absence of endothelium by myograph assay. The class given is functional, tissue-based. The note with it: dose 3-300 µM.
Experiment [7] relates to Thoracic aorta. In words: Vasorelaxant activity in C57 mouse thoracic aortic rings containing endothelium assessed as reduction in high extracellular K+-induced contractions at 3 to 300 uM pretreated with nitric oxide synthase inhibitor, L-NAME and measured for 16 mins by myograph method. It counts as functional, tissue-based. The note with it: dose 3-300 µM.

Activity calls are given as the source filed them. The rule behind the calls is not given here.

Turning to `COc1ccc2nc(N3CCCC3)c(N3CCN(Cc4ccccc4)CC3)nc2c1`, in the experiment with Thoracic aorta [1], the outcome was inactive.
With `CCN1CCN(c2nc3cc(OC)ccc3nc2N2CCCC2)CC1`, the Activity result in the experiment on Thoracic aorta [1] and in the experiment with Thoracic aorta [5] was “Dose-dependent effect” in each case. Further, the outcome with Thoracic aorta [2], in the experiment on Thoracic aorta [3], in the experiment with Thoracic aorta [6] and in the experiment on Thoracic aorta [7] was Active. Moreover, in the experiment on Thoracic aorta [4], the inhibition at 300 µM stood at 50%.
As to `COc1ccc2nc(Oc3ccc(-c4ccccc4)cc3)c(N3CCCC3)nc2c1`, the outcome in the experiment on Thoracic aorta [1] was inactive.
With `COc1ccc2nc(Oc3ccc(-c4ccc(C#N)cc4)cc3)c(N3CCN(C)CC3)nc2c1`, the result with Thoracic aorta [1] and with Thoracic aorta [6] was Active. In addition, the Activity entry in the experiment with Thoracic aorta [5] is “Dose-dependent effect”.
As for `COc1ccc2nc(N3CCCC3)c(N3CCN(C)CC3)nc2c1`, the Activity entry with Thoracic aorta [1] and in the experiment on Thoracic aorta [5] was “Dose-dependent effect” each time. The outcome in the experiment with Thoracic aorta [2], in the experiment on Thoracic aorta [3], in the experiment on Thoracic aorta [6] and in the experiment on Thoracic aorta [7] was Active. In the experiment with Thoracic aorta [4], the inhibition at 300 µM was determined as 50%.
`COc1ccc2nc(Oc3ccc(-c4ccc(C#N)cc4)cc3)c(N3CCN(c4ccccc4)CC3)nc2c1`: the outcome with Thoracic aorta [1] and in the experiment with Thoracic aorta [6] was Active. Moreover, the Activity entry with Thoracic aorta [5] is “Dose-dependent effect”.
Regarding `COc1ccc2nc(NC#N)c(N3CCN(Cc4ccccc4)CC3)nc2c1`, the result in the experiment with Thoracic aorta [1] was inactive.
The same measure, in the same setting: next, `COc1ccc2nc(N3CCCC3)c(N3CCN(c4ccccc4)CC3)nc2c1`: “inactive”.
On to `COC(=O)C1CCN(c2nc3cc(OC)ccc3nc2N2CCCC2)CC1`, for which the Activity entry in the experiment on Thoracic aorta [1] and in the experiment on Thoracic aorta [5] was “Dose-dependent effect” in each case. The result in the experiment on Thoracic aorta [2], with Thoracic aorta [3], in the experiment with Thoracic aorta [6] and in the experiment on Thoracic aorta [7] was Active. Further, the inhibition at 300 µM in the experiment with Thoracic aorta [4] amounted to 72.7%.
Regarding `COc1ccc2nc(N3CCCC3)c(N3CCOCC3)nc2c1`, in the experiment with Thoracic aorta [1], the outcome was inactive.

The values are drawn from ChEMBL document CHEMBL4706661, “Synthesis and vasorelaxant evaluation of novel 7-methoxyl-2,3-disubstituted-quinoxaline derivatives” (2021).
